Reference: patent US8957093B2, “N-biphenylmethylindole modulators of PPARG” (The Scripps Research Institute, priority 2011, dated 2015)
Like-named read-outs stand apart in the source and are kept apart here.

Legend:
GST-PPARG-LBD = GST-PPARG-LBD (Homo sapiens (Human), UniProt P37231); test: Lanthascreen PPARG competitive binding assay (Invitrogen, TR-FRET); settings: NA = not active, inc = incomplete curve, read-out: IC50 (nM) Lantha
In short: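 Values are fold change in 520 nm/490 nm FRET ratio relative to a 2% DMSO no-ligand control, excitation 340 nm. Compound dilutions starting at 10 μM competed against 5 nM Fluormone Pan-PPAR Green for GST-PPARG-LBD bound by 5 nM Tb anti-GST antibody. Incubation 2 h in the dark in assay buffer C, triplicate wells.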

[1] = system: PPARG (murine PPARg2 or full-length human PPARG, 3xPPRE-luciferase reporter); test: Cell-based PPRE-luciferase transactivation assay in COS-1 cells; settings: for PPRE transactivation (% in parentheses): rosiglitazone = 100%; for % transactivation (PPRE): PPRE transactivation data, at 10 μM
[2] = biological target: PPARG (murine PPARg2 or full-length human PPARG, 3xPPRE-luciferase reporter) (Homo sapiens, UniProt P37231); test: as above
PPARG (murine PPARg2 or full-length human PPARG, 3xPPRE-luciferase reporter) (Homo sapiens, UniProt P37231), sequence (P37231 whole entry, looked up): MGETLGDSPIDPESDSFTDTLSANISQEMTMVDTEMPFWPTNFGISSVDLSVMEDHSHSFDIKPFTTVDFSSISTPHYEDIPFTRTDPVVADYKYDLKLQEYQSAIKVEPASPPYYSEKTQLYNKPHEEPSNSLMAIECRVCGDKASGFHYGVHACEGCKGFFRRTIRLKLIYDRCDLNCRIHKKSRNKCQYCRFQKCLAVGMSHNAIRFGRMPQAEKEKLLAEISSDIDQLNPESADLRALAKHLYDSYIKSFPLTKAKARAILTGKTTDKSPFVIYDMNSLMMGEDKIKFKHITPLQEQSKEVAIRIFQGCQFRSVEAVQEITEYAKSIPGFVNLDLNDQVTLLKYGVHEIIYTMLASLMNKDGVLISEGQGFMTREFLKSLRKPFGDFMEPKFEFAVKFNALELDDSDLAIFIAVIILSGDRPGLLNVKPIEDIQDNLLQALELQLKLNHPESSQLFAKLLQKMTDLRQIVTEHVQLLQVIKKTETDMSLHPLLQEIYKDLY

[3] = biological target: Rb protein (cdk5 substrate) (Homo sapiens (Human), UniProt Q00535); test: cdk5 phosphorylation of Rb protein in vitro (Western blot); format: biochemical
From the text: (§1) In order to develop a suitable ligand, we optimized compounds for (i) high binding affinity for PPARG, (ii) blocking the cdk5-mediated PPARG phosphorylation and (iii) lacking classical agonism. Classical agonism is defined here, as is standard in the nuclear receptor field, as an increased level of transcription through a tandem PPAR response element luciferase reporter (PPRE::Luc).

differentiated fat cells = test: cdk5-mediated phosphorylation of PPARG in differentiated fat cells; format: cell-based
From the text: as §1

ob/ob mouse = test: Leptin-deficient ob/ob mouse model; settings: ob/ob mice; for insulin levels / fasting glucose levels: after five days of treatment; for fasting glucose levels: vehicle 110±13; for body weight: longer treatment (11 days)
Method: A more severe model of obesity is the leptin-deficient ob/ob mouse. These animals are very obese and insulin-resistant, with substantial compensatory hyperinsulinemia. […] Functional analyses were performed at days 5 and 11 after the start of treatments.
Longer treatments with these drugs allowed an assessment of certain side effects.

[4] = system: obese, insulin-resistant mice; test: Wild-type mice fed a calorie dense diet high in sugar and fat (obese, insulin-resistant)
MC3T3-E1 cells = test: Mineralization of osteoblastic cells (Alizarin red S staining, osteoblast gene expression); format: cell-based, mouse; settings: for mineralization (calcification): Alizarin red S staining
From the text: Moreover, the expression of genes involved in the differentiation of these cells was impaired (alkaline phosphatase, RANKL, type I collagen).

[5] = Pharmacokinetic properties; settings: in vivo
[6] = system: obese, insulin-resistant mice; test: Hyperinsulinemic-euglycemic clamp in obese mice; format: in vivo, mouse
From the text: The most accurate method for measuring changes in insulin sensitivity is the hyperinsulinemic-euglycemic clamp (DeFronzo et al., 1979). In this method, animals are exposed to an elevated concentration of insulin while the amount of glucose infused is adjusted in real time to maintain fixed, or clamped glycemia.

RAW264.7 cells = test: Inflammatory cytokine production in LPS stimulated RAW264.7 cells; format: cell-based
pre-adipose cell lines = test: Fat cell differentiation (Oil Red O staining, adipogenic gene expression); format: cell-based; settings: for fat cell differentiation / lipid accumulation: Oil Red O staining; for expression of aP2, C/EBPα and Glut4: genes linked to adipogenesis
[7] = injected twice daily for 5 days

GST-PPARG-LBD, sequence (P37231 238-503): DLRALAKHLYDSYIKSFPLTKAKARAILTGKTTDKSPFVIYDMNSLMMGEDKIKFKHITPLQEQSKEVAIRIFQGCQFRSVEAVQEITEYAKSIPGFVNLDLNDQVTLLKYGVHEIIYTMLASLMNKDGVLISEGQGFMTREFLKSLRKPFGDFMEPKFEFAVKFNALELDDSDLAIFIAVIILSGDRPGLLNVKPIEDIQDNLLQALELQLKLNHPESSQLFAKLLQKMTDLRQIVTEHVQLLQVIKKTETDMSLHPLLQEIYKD

Cc1c(C)n(Cc2ccc(-c3ccccc3C(=O)O)cc2)c2ccc(C(=O)N[C@H]3COc4ccccc4C3)cc12 [Example 249, (R)-4′-((5-(chroman-3-ylcarbamoyl)-2,3-dimethyl-1H-indol-1-yl)methyl)-[1,1′-biphenyl]-2-carboxylic acid]
IC50 (GST-PPARG-LBD; Lanthascreen competitive binding): 22 nM
PPRE transactivation (% in parentheses) [1]: (1%)
EC50 ([2]; PPRE-luciferase, COS-1 cells, NA = not active, read-out: EC50 (nM) PPRE): 80 nM

Cc1c(C)n(Cc2ccc(-c3ccccc3C(=O)O)cc2)c2ccc(C(=O)N[C@@H]3C[C@H]3c3ccccc3)cc12 [Example 294, 4′-((2,3-Dimethyl-5-(((1R,2S)-2-phenylcyclopropyl)carbamoyl)-1H-indol-1-yl)methyl)-[1,1′-biphenyl]-2-carboxylic acid]
IC50 (GST-PPARG-LBD; Lanthascreen PPARG competitive binding): 22 nM
% transactivation (PPRE) [1]: (28%)
EC50 ([2]; PPRE transactivation data, read-out: PPRE EC50): 517 nM

Cc1c(C)n(Cc2ccc(-c3ccccc3C(=O)O)cc2)c2ccc(C(=O)N[C@@H](C)c3ccc([N+](=O)[O-])cc3)cc12 [SR1664]
effect on cdk5 phosphorylation of the Rb protein [3]: no effect
blocking cdk5-mediated phosphorylation of PPARG in differentiated fat cells (differentiated fat cells): effective at blocking
glucose tolerance test (ob/ob mouse): markedly improved
insulin levels (ob/ob mouse): substantially reduced
fasting glucose levels (ob/ob mouse): 90 ± 12 mg/dL
body fat / adiposity by MRI (ob/ob mouse; longer treatment): no decrease in the hematocrit or change in body adiposity
hematocrit (fluid retention) (ob/ob mouse; longer treatment): no decrease
body weight (ob/ob mouse): did not cause the weight gain
body weight compared to vehicle treated mice [4, 7]: without significant differences
cdk5-mediated phosphorylation of PPARG at serine 273 in adipose tissue [4, 7]: dose-dependent decrease
fasting insulin levels [4, 7]: significant reduction
glucose levels [4, 7]: trend toward lowered (and normalized) glucose levels
insulin resistance as computed by HOMA-IR [4, 7]: clear and dose-dependent improvement
expression of adiponectin and adipsin ([4]; mouse, in vivo): induced
expression of osteoblast differentiation genes (alkaline phosphatase, RANKL, type I collagen) (MC3T3-E1 cells): did not affect
mineralization (calcification) (MC3T3-E1 cells): did not affect
pharmacokinetic properties [5]: adequate
plasma FFA ([6]; basal and clamped conditions): reduction
glucose uptake in the adipose tissue ([6]; clamp): significantly enhanced
suppression of endogenous hepatic glucose production (EGP) ([6]; clamp): increased
whole body glucose utilization ([6]; clamp): not increased
glucose infusion rate (GIR) needed to maintain euglycemia ([6]; versus vehicle alone): significantly greater
production of inflammatory cytokines (RAW264.7 cells): inhibition of production of inflammatory cytokines
fat cell differentiation / lipid accumulation (pre-adipose cell lines): did not stimulate increased lipid accumulation or changes in morphology
expression of aP2, C/EBPα and Glut4 (pre-adipose cell lines): little or no change

CN(CCOc1ccc(CC2SC(=O)NC2=O)cc1)c1ccccn1 (centres unmarked) [rosiglitazone, reference compound]
effect on cdk5 phosphorylation of the Rb protein [3]: no effect
glucose tolerance test (ob/ob mouse): markedly improved
insulin levels (ob/ob mouse): substantially reduced
fasting glucose levels (ob/ob mouse): 88 ± 13 mg/dL
body fat / adiposity by MRI (ob/ob mouse; longer treatment): increase in body fat
hematocrit (fluid retention) (ob/ob mouse; longer treatment): characteristic decrease
body weight (ob/ob mouse): increase in body weight
expression of osteoblast differentiation genes (alkaline phosphatase, RANKL, type I collagen) (MC3T3-E1 cells): impaired
mineralization (calcification) (MC3T3-E1 cells): reduced the mineralization
production of inflammatory cytokines (RAW264.7 cells): inhibition of production of inflammatory cytokines
fat cell differentiation / lipid accumulation (pre-adipose cell lines): potently stimulated fat cell differentiation
expression of aP2, C/EBPα and Glut4 (pre-adipose cell lines): increased expression
